Here are results for four molecules from ChEMBL document CHEMBL1153432 (J Med Chem, 2009).

Where a SMILES comes first, the peptide text is derived from it. [ ]: non-standard residue; d: D form. The star is where a group is joined. Heptanoyl = CCCCCCC(=O)*; Dap = NC[C@H](N)C(=O)O; X1 = O=C(CCCCCF)*

Assay [1] concerns the target T1, Growth hormone secretagogue receptor type 1 (Homo sapiens, UniProt Q92847). The assay can be described thus: Displacement of [35S]MK-0677 from human growth hormone secretagogue receptor.
In assay [2] the target is T1, Growth hormone secretagogue receptor type 1. The experiment in a line: Displacement of [125I]ghrelin from human growth hormone secretagogue receptor expressed in CHO-K1 cells. Format: cell-based.
The target is the same in assay [3]. The assay can be described thus: Displacement of [125I]ghrelin from human growth hormone secretagogue receptor expressed in CHO-K1 cells at >2 uM. The class given is cell-based.

T1 sequence (Q92847 whole entry): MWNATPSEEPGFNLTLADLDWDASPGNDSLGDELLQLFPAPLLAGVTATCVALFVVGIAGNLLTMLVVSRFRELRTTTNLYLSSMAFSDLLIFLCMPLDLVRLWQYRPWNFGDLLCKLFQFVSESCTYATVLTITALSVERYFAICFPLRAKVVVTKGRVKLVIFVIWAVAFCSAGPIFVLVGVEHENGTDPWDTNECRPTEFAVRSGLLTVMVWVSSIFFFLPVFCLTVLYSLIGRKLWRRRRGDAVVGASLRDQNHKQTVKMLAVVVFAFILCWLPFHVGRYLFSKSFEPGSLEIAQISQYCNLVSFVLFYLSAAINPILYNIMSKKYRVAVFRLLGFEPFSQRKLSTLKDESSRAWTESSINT

The term IC50 denotes the midpoint of a concentration-inhibition curve. A higher IC50 goes with lower potency. In assay [1], `CCCCCCC(=O)OC[C@H](NC(=O)[C@H](CO)NC(=O)CN)C(=O)N[C@@H](Cc1ccccc1)C(=O)N[C@@H](CC(C)C)C(=O)N[C@@H](CO)C(=O)N1CCC[C@H]1C(=O)N[C@@H](CCC(=O)O)C(=O)N[C@@H](Cc1cnc[nH]1)C(=O)N[C@@H](CCC(N)=O)C(=O)N[C@@H](CCCN=C(N)N)C(=O)N[C@H](C(=O)N[C@@H](CCC(N)=O)C(=O)N[C@@H](CCC(N)=O)C(=O)O)C(C)C` returned an IC50 of 9.6 µM. Turning to `CCCCCCC(=O)OC[C@H](NC(=O)[C@H](CO)NC(=O)CN)C(=O)N[C@@H](Cc1ccccc1)C(N)=O` (H-GSS(Heptanoyl)F-NH2), in assay [1], the IC50 came to 889 µM. Same read-out and setting: the result for `CCCCCCC(=O)OC[C@H](NC(=O)[C@H](CO)NC(=O)CN)C(=O)N[C@@H](Cc1ccccc1)C(=O)N[C@@H](CC(C)C)C(N)=O` (H-GSS(Heptanoyl)FL-NH2) reads 55 µM. In turn, `CC(C)C[C@H](NC(=O)[C@H](Cc1ccccc1)NC(=O)[C@H](CNC(=O)CCCCCF)NC(=O)[C@H](CO)NC(=O)CN)C(N)=O` (H-GS[Dap](X1)FL-NH2) yielded an IC50 in assay [2] above 2 µM. The Activity in assay [3] was 20%.
